From ChEMBL document CHEMBL3885861, “Open TG-GATES”

Species on record: Rattus norvegicus
Test: Open TG-GATES - Regimen: Single
Format: toxicity, organism-based, Sprague-Dawley
Design: regimen Single, gender Male, age 6 weeks
Settings: in vivo, ip, 40 mg/kg, route intraperitoneal injection, dose level Low; for APTT / Bas / Eos / Fbg / Hb / Ht / Lym / MCH / MCHC / MCV / Mono / Neu / PT / Plat / RBC / Ret / WBC: tissue Blood; for KIDNEY_L / KIDNEY_R / KIDNEY_TOTAL: tissue Kidney; for LIVER: tissue Liver; for A/G / ALP / ALT / AST / BUN / CRE / Ca / Cl / DBIL / GLC / IP / K / LDH / Na / PL / RALB / TBIL / TC / TG / TP / gamma-GTP: tissue Plasma

## CC(C)=CC(=O)C=C(C)C [PHORONE]
3 h
  TERMINAL_BW: 219.9 g
  APTT: 16.7 s
  Bas: 0%
  Eos: 0.8%
  Fbg: 211 mg/dL
  Hb: 13.1 g/dL
  Ht: 39.1%
  Lym: 69.8%
  MCH: 21.6 pg
  MCHC: 33.5%
  MCV: 64.4 fL
  Mono: 8.4%
  Neu: 21.2%
  PT: 12.2 s
  Plat: 112.1 x10_4/uL
  RBC: 608 x10_4/ul
  Ret: 9.2%
  WBC: 105.8 x10_2/uL
  KIDNEY_L: 1 g
  KIDNEY_R: 1 g
  KIDNEY_TOTAL: 2 g
  LIVER: 10.5 g
  A/G: 2.3
  ALP: 735.6 IU/L
  ALT: 36.4 IU/L
  AST: 78.6 IU/L
  BUN: 14.8 mg/dL
  CRE: 0.6 mg/dL
  Ca: 10.6 mg/dL
  Cl: 106 meq/L
  DBIL: 0.034 mg/dL
  GLC: 193.6 mg/dL
  IP: 10.3 mg/dL
  K: 4.8 meq/L
  LDH: 83.8 IU/L
  Na: 139 meq/L
  PL: 133.6 mg/dL
  RALB: 3.6 g/dL
  TBIL: 0.4 mg/dL
  TC: 75.4 mg/dL
  TG: 46 mg/dL
  TP: 5.2 g/dL
  gamma-GTP: 2.4 IU/L
6 h
  TERMINAL_BW: 219.1 g
  APTT: 17.2 s
  Bas: 0%
  Eos: 0.6%
  Fbg: 216.8 mg/dL
  Hb: 13.5 g/dL
  Ht: 40.3%
  Lym: 66.2%
  MCH: 21.6 pg
  MCHC: 33.4%
  MCV: 64.8 fL
  Mono: 6.6%
  Neu: 26.8%
  PT: 12.3 s
  Plat: 114.9 x10_4/uL
  RBC: 621.6 x10_4/ul
  Ret: 9%
  WBC: 90 x10_2/uL
  KIDNEY_L: 1 g
  KIDNEY_R: 1 g
  KIDNEY_TOTAL: 2.1 g
  LIVER: 9.8 g
  A/G: 2.2
  ALP: 814.6 IU/L
  ALT: 36.2 IU/L
  AST: 70.8 IU/L
  BUN: 13.8 mg/dL
  CRE: 0.5 mg/dL
  Ca: 10.8 mg/dL
  Cl: 105 meq/L
  DBIL: 0.048 mg/dL
  GLC: 193.4 mg/dL
  IP: 10.1 mg/dL
  K: 4.9 meq/L
  LDH: 76 IU/L
  Na: 138.2 meq/L
  PL: 126.4 mg/dL
  RALB: 3.6 g/dL
  TBIL: 0.5 mg/dL
  TC: 72.2 mg/dL
  TG: 36.6 mg/dL
  TP: 5.3 g/dL
  gamma-GTP: 1.6 IU/L
9 h
  TERMINAL_BW: 220.4 g
  APTT: 17.1 s
  Bas: 0%
  Eos: 1%
  Fbg: 246.6 mg/dL
  Hb: 13.2 g/dL
  Ht: 39.8%
  Lym: 63.8%
  MCH: 21.8 pg
  MCHC: 33.3%
  MCV: 65.5 fL
  Mono: 8.6%
  Neu: 26.6%
  PT: 12.1 s
  Plat: 115.4 x10_4/uL
  RBC: 609 x10_4/ul
  Ret: 9.4%
  WBC: 96.2 x10_2/uL
  KIDNEY_L: 1 g
  KIDNEY_R: 1 g
  KIDNEY_TOTAL: 2 g
  LIVER: 9.5 g
  A/G: 2
  ALP: 839.8 IU/L
  ALT: 33.2 IU/L
  AST: 69 IU/L
  BUN: 13.8 mg/dL
  CRE: 0.5 mg/dL
  Ca: 10.8 mg/dL
  Cl: 106.6 meq/L
  DBIL: 0.04 mg/dL
  GLC: 204.2 mg/dL
  IP: 10 mg/dL
  K: 4.7 meq/L
  LDH: 91.4 IU/L
  Na: 138.8 meq/L
  PL: 131.8 mg/dL
  RALB: 3.6 g/dL
  TBIL: 0.4 mg/dL
  TC: 77.6 mg/dL
  TG: 54 mg/dL
  TP: 5.4 g/dL
  gamma-GTP: 1.8 IU/L
24 h
  TERMINAL_BW: 231.5 g
  APTT: 16.9 s
  Bas: 0%
  Eos: 0.8%
  Fbg: 231.2 mg/dL
  Hb: 12.9 g/dL
  Ht: 38.5%
  Lym: 77.8%
  MCH: 22 pg
  MCHC: 33.6%
  MCV: 65.4 fL
  Mono: 5.6%
  Neu: 16%
  PT: 11.5 s
  Plat: 113 x10_4/uL
  RBC: 589.8 x10_4/ul
  Ret: 8.8%
  WBC: 87.7 x10_2/uL
  KIDNEY_L: 1 g
  KIDNEY_R: 1 g
  KIDNEY_TOTAL: 2 g
  LIVER: 11.8 g
  A/G: 2
  ALP: 774.8 IU/L
  ALT: 34 IU/L
  AST: 65 IU/L
  BUN: 19.2 mg/dL
  CRE: 0.5 mg/dL
  Ca: 11 mg/dL
  Cl: 104.4 meq/L
  DBIL: 0.028 mg/dL
  GLC: 197.2 mg/dL
  IP: 8.3 mg/dL
  K: 4.7 meq/L
  LDH: 87.6 IU/L
  Na: 139 meq/L
  PL: 156 mg/dL
  RALB: 3.8 g/dL
  TBIL: 0.4 mg/dL
  TC: 81.8 mg/dL
  TG: 118.2 mg/dL
  TP: 5.7 g/dL
  gamma-GTP: 0.6 IU/L
